In ChEMBL document CHEMBL1201861, “Genomics of Drug Sensitity in Cancer screening data, Wellcome Trust Sanger Institute”:

Key:
Assay in all cases: cells
[1] = system: DSH1; format: functional, cell-based; conditions: Homo sapiens;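 note: growth inhibition of human DSH1 cells, measured with a cell viability readout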
Description: SANGER: Inhibition of human DSH1 cell growth in a cell viability assay.

[2] = system: ES1; format: functional, cell-based, Homo sapiens; conditions: Homo sapiens, ES1;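 note: growth inhibition of ES1 cells, read out with a cell viability assay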
Description: SANGER: Inhibition of human ES1 cell growth in a cell viability assay.

[3] = system: ES3; format: functional, cell-based, Homo sapiens; conditions: Homo sapiens, ES3;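 note: growth inhibition of ES3 cells, read out with a cell viability assay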
Description: SANGER: Inhibition of human ES3 cell growth in a cell viability assay.

[4] = system: EW-18; format: functional, cell-based, Homo sapiens; conditions: Homo sapiens, EW-18; read-out: IC50;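 note: growth inhibition of EW-18 cells, read out by a cell viability assay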
Description: SANGER: Inhibition of human EW-18 cell growth in a cell viability assay.

[5] = system: EOL1; format: functional, cell-based, Homo sapiens; conditions: Homo sapiens, EOL1;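 note: growth inhibition of EoL-1 cells, read out by a cell viability assay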
Description: SANGER: Inhibition of human EoL-1-cell cell growth in a cell viability assay.

[6] = system: GI-1; format: functional, cell-based, Homo sapiens; conditions: Homo sapiens, GI-1;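 note: growth inhibition of human GI-1 cells, measured with a cell viability readout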
Description: SANGER: Inhibition of human GI-1 cell growth in a cell viability assay.

[7] = system: HAL-01; format: functional, cell-based, Homo sapiens; conditions: Homo sapiens, HAL-01;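 note: growth inhibition of human HAL-01 cells, read out with a cell viability assay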
Description: SANGER: Inhibition of human HAL-01 cell growth in a cell viability assay.

[8] = system: HD-MY-Z; format: functional, cell-based, Homo sapiens; conditions: Homo sapiens, HD-MY-Z;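 note: growth inhibition of HD-MY-Z cells, read out with a cell viability assay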
Description: SANGER: Inhibition of human HD-MY-Z cell growth in a cell viability assay.

[9] = system: IA-LM; format: functional, cell-based; conditions: Homo sapiens;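 note: cell viability assay measuring growth inhibition of human IA-LM cells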
Description: SANGER: Inhibition of human IA-LM cell growth in a cell viability assay.

[10] = system: IST-MES1; format: functional, cell-based, Homo sapiens; conditions: Homo sapiens, IST-MES1;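 note: growth inhibition of IST-MES1 cells, measured with a cell viability assay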
Description: SANGER: Inhibition of human IST-MES1 cell growth in a cell viability assay.

[11] = system: JAR; format: functional, cell-based, Homo sapiens; conditions: Homo sapiens, JAR;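 note: growth inhibition of human JAR cells determined with a cell viability assay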
Description: SANGER: Inhibition of human JAR cell growth in a cell viability assay.

[12] = system: KE-37; format: functional, cell-based, Homo sapiens; conditions: Homo sapiens, KE-37;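 note: growth inhibition of KE-37 cells, read out with a cell viability assay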
Description: SANGER: Inhibition of human KE-37 cell growth in a cell viability assay.

[13] = system: KG-1; format: functional, cell-based, Homo sapiens; conditions: Homo sapiens, KG-1;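 note: growth inhibition of KG-1 cells, read out by a cell viability assay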
Description: SANGER: Inhibition of human KG-1 cell growth in a cell viability assay.

[14] = system: KLE; format: functional, cell-based; conditions: Homo sapiens;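 note: growth inhibition of human KLE cells, read out with a cell viability assay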
Description: SANGER: Inhibition of human KLE cell growth in a cell viability assay.

[15] = system: KM12; format: functional, cell-based, Homo sapiens; conditions: Homo sapiens, KM12;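 note: KM12 cell growth inhibition, read out with a cell viability assay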
Description: SANGER: Inhibition of human KM12 cell growth in a cell viability assay.

[16] = system: L-363; format: functional, cell-based, Homo sapiens; conditions: Homo sapiens, L-363
Description: SANGER: Inhibition of human L-363 cell growth in a cell viability assay.

[17] = system: LAMA-84; format: functional, cell-based, Homo sapiens; conditions: Homo sapiens, LAMA-84;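 note: growth inhibition of LAMA-84 cells, read out with a cell viability assay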
Description: SANGER: Inhibition of human LAMA-84 cell growth in a cell viability assay.

[18] = system: LOX IMVI; format: functional, cell-based, Homo sapiens; conditions: Homo sapiens, LOX IMVI
Description: SANGER: Inhibition of human LOXIMVI cell growth in a cell viability assay.

[19] = system: LS-513; format: functional, cell-based, Homo sapiens; conditions: Homo sapiens, LS-513
Description: SANGER: Inhibition of human LS-513 cell growth in a cell viability assay.

[20] = system: Lu-65; format: functional, cell-based, Homo sapiens; conditions: Homo sapiens, Lu-65;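 note: growth inhibition of Lu-65 cancer cells, read out by a cell viability assay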
Description: SANGER: Inhibition of human LU-65 cell growth in a cell viability assay.

[21] = system: MFM-223; format: functional, cell-based, Homo sapiens; conditions: Homo sapiens, MFM-223
Description: SANGER: Inhibition of human MFM-223 cell growth in a cell viability assay.

[22] = system: MLMA; format: functional, cell-based, Homo sapiens; conditions: Homo sapiens, MLMA;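 note: growth inhibition of MLMA cells (human), determined through a cell viability readout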
Description: SANGER: Inhibition of human MLMA cell growth in a cell viability assay.

[23] = system: MOLT-4; format: functional, cell-based, Homo sapiens; conditions: Homo sapiens, MOLT-4;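 note: growth inhibition of MOLT-4 cells, determined with a cell viability readout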
Description: SANGER: Inhibition of human MOLT-4 cell growth in a cell viability assay.

[24] = system: MPP-89; format: functional, cell-based, Homo sapiens; conditions: Homo sapiens, MPP-89;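 note: growth inhibition of human MPP-89 cells, read out with a cell viability assay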
Description: SANGER: Inhibition of human MPP-89 cell growth in a cell viability assay.

[25] = system: MZ7-mel; format: functional, cell-based, Homo sapiens; conditions: Homo sapiens, MZ7-mel;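 note: growth inhibition of human MZ7-mel cells, measured by a cell viability assay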
Description: SANGER: Inhibition of human MZ7-mel cell growth in a cell viability assay.

[26] = system: NB13; format: functional, cell-based, Homo sapiens; conditions: Homo sapiens, NB13;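 note: cell viability readout measuring growth inhibition of human NB13 cells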
Description: SANGER: Inhibition of human NB13 cell growth in a cell viability assay.

[27] = system: NCI-H1838; format: functional, cell-based, Homo sapiens; conditions: Homo sapiens, NCI-H1838;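 note: growth inhibition of NCI-H1838 cells, determined with a cell viability readout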
Description: SANGER: Inhibition of human NCI-H1838 cell growth in a cell viability assay.

[28] = system: NCI-H226; format: functional, cell-based, Homo sapiens; conditions: Homo sapiens, NCI-H226;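 note: cell viability read-out used to gauge growth inhibition of the cells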
Description: SANGER: Inhibition of human NCI-H226 cell growth in a cell viability assay.

[29] = system: NCI-H23; format: functional, cell-based, Homo sapiens; conditions: Homo sapiens, NCI-H23;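 note: cell viability assay measuring growth inhibition of NCI-H23 cells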
Description: SANGER: Inhibition of human NCI-H23 cell growth in a cell viability assay.

[30] = system: NH-12; format: functional, cell-based, Homo sapiens; conditions: Homo sapiens, NH-12;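 note: growth inhibition of NH-12 cells, read out with a cell viability assay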
Description: SANGER: Inhibition of human NH-12 cell growth in a cell viability assay.

[31] = system: QIMR-WIL; format: functional, cell-based, Homo sapiens; conditions: Homo sapiens, QIMR-WIL;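 note: growth inhibition of QIMR-WIL cells, read out with a cell viability assay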
Description: SANGER: Inhibition of human QIMR-WIL cell growth in a cell viability assay.

[32] = system: RH-1; format: functional, cell-based, Homo sapiens; conditions: Homo sapiens, RH-1;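 note: growth inhibition of human RH-1 cells, read out with a cell viability assay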
Description: SANGER: Inhibition of human RH-1 cell growth in a cell viability assay.

[33] = system: SF-126; format: functional, cell-based, Homo sapiens; conditions: Homo sapiens, SF-126;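 note: growth inhibition of human SF126 cells, read out with a cell viability assay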
Description: SANGER: Inhibition of human SF126 cell growth in a cell viability assay.

[34] = system: SHP77; format: functional, cell-based, Homo sapiens, SHP-77; conditions: Homo sapiens, SHP77;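 note: growth inhibition of human SHP-77 cells measured by a cell viability assay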
Description: SANGER: Inhibition of human SHP-77 cell growth in a cell viability assay.

[35] = system: SJSA-1; format: functional, cell-based, Homo sapiens; conditions: Homo sapiens, SJSA-1;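 note: growth inhibition of human SJSA-1 cells, read out through a cell viability measurement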
Description: SANGER: Inhibition of human SJSA-1 cell growth in a cell viability assay.

[36] = system: SK-LMS-1; format: functional, cell-based, Homo sapiens; conditions: Homo sapiens, SK-LMS-1;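 note: growth inhibition of human SK-LMS-1 cells, read out with a cell viability assay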
Description: SANGER: Inhibition of human SK-LMS-1 cell growth in a cell viability assay.

[37] = system: SK-N-DZ; format: functional, cell-based, Homo sapiens; conditions: Homo sapiens, SK-N-DZ; read-out: IC50;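 note: growth inhibition of the cancer cell line, read out through a viability assay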
Description: SANGER: Inhibition of human SK-N-DZ cell growth in a cell viability assay.

[38] = system: SK-PN-DW; format: functional, cell-based, Homo sapiens; conditions: Homo sapiens, SK-PN-DW;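 note: growth inhibition measured with a viability assay on these cells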
Description: SANGER: Inhibition of human SK-PN-DW cell growth in a cell viability assay.

[39] = system: SW684; format: functional, cell-based, Homo sapiens; conditions: Homo sapiens, SW684; read-out: IC50;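 note: growth inhibition of human SW684 cells, measured by a cell viability assay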
Description: SANGER: Inhibition of human SW684 cell growth in a cell viability assay.

[40] = system: SW 962; format: functional, cell-based, Homo sapiens; conditions: Homo sapiens, SW 962;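 note: growth inhibition of human SW962 cells, read out by a cell viability assay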
Description: SANGER: Inhibition of human SW962 cell growth in a cell viability assay.

[41] = system: TE-1; format: functional, cell-based, Homo sapiens; conditions: Homo sapiens, TE-1;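 note: growth inhibition of the human TE-1 cell line, read out with a cell viability assay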
Description: SANGER: Inhibition of human TE-1 cell growth in a cell viability assay.

[42] = system: A101D; format: functional, cell-based, Homo sapiens; conditions: Homo sapiens, A101D;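 note: growth inhibition of the cell line, measured with a viability assay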
Description: SANGER: Inhibition of human A101D cell growth in a cell viability assay.

[43] = system: A253 cell line; format: functional, cell-based, Homo sapiens; conditions: Homo sapiens, A253;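 note: growth inhibition of A253 cells, read out with a cell viability assay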
Description: SANGER: Inhibition of human A253 cell growth in a cell viability assay.

[44] = system: ACN; format: functional, cell-based, Homo sapiens; conditions: Homo sapiens, ACN;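 note: growth inhibition of the human ACN cell line, read out via cell viability testing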
Description: SANGER: Inhibition of human ACN cell growth in a cell viability assay.

[45] = system: AM-38; format: functional, cell-based, Homo sapiens; conditions: Homo sapiens, AM-38;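 note: growth inhibition of AM-38 cells of human origin, read out by a cell viability assay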
Description: SANGER: Inhibition of human AM-38 cell growth in a cell viability assay.

[46] = system: BE-13; format: functional, cell-based, Homo sapiens; conditions: Homo sapiens, BE-13;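 note: growth inhibition of human BE-13 cells, measured with a cell viability assay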
Description: SANGER: Inhibition of human BE-13 cell growth in a cell viability assay.

[47] = system: BV-173; format: functional, cell-based, Homo sapiens; conditions: Homo sapiens, BV-173
Description: SANGER: Inhibition of human BV-173 cell growth in a cell viability assay.

[48] = system: C2BBe1; format: functional, cell-based, Homo sapiens; conditions: Homo sapiens, C2BBe1;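 note: growth inhibition of C2BBe1 cells, read out through a viability assay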
Description: SANGER: Inhibition of human C2BBe1 cell growth in a cell viability assay.

[49] = system: TE-5; format: functional, cell-based, Homo sapiens; conditions: Homo sapiens, TE-5;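 note: inhibition of cell growth, read out by a cell viability assay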
Description: SANGER: Inhibition of human TE-5 cell growth in a cell viability assay.

[50] = system: CCRF-CEM; format: functional, cell-based, Homo sapiens; conditions: Homo sapiens, CCRF-CEM;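 note: inhibition of CCRF-CEM cell growth, measured by a cell viability assay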
Description: SANGER: Inhibition of human CCRF-CEM cell growth in a cell viability assay.

With COc1ccc(-c2cc3nccn3c(Nc3ncccc3C(N)=O)n2)cc1OC the IC50 [1] was greater than 8 µM, the IC50 [2] was 2380 nM and the IC50 [3] was 3.03 µM. It also gave an IC50 [4] of 4.58 µM, an IC50 [5] of 333 nM and an IC50 [6] of 5.41 µM. It also gave an IC50 [7] greater than 8 µM, an IC50 [8] greater than 8 µM and an IC50 [9] of 2.71 µM. The IC50 [10] was greater than 8 µM, the IC50 [11] was greater than 8 µM and the IC50 [12] was 0.835 µM. The IC50 [13] was 2.87 µM, the IC50 [14] was greater than 8 µM and the IC50 [15] was 2.69 µM. It also gave an IC50 [16] of 2.93 µM, an IC50 [17] greater than 8 µM and an IC50 [18] of 2.66 µM. For the same compound, the IC50 [19] was greater than 8 µM, the IC50 [20] was 2.22 µM and the IC50 [21] was greater than 8 µM. The IC50 [22] was 0.993 µM, the IC50 [23] was 5.81 µM and the IC50 [24] was 1.67 µM. It also gave an IC50 [25] greater than 8 µM, an IC50 [26] of 3.24 µM and an IC50 [27] greater than 8 µM. The IC50 [28] was 4.03 µM, the IC50 [29] was greater than 8 µM and the IC50 [30] was 2.49 µM. It also gave an IC50 [31] of 0.582 µM, an IC50 [32] of 4.67 µM and an IC50 [33] greater than 8 µM. The IC50 [34] was greater than 8 µM, the IC50 [35] was 3.77 µM and the IC50 [36] was greater than 8 µM. The IC50 [37] was greater than 8 µM, the IC50 [38] was 5.37 µM and the IC50 [39] was greater than 8 µM. It also gave an IC50 [40] greater than 8 µM, an IC50 [41] greater than 8 µM and an IC50 [42] of 4.87 µM. The IC50 [43] was greater than 8 µM, the IC50 [44] was greater than 8 µM and the IC50 [45] was greater than 8 µM. It also gave an IC50 [46] of 2.7 µM, an IC50 [47] greater than 8 µM and an IC50 [48] greater than 8 µM. For the same compound, the IC50 [49] was 5.54 µM and the IC50 [50] was 1.98 µM.
With OC[C@H](Cc1ccccc1)Nc1nc(Oc2ccc3c(c2)CCC3)nc2c1ncn2Cc1ccc(-c2ccccc2)cc1 the IC50 [1] was 6.82 µM, the IC50 [2] was 1380 nM and the IC50 [3] was 6.65 µM. For the same compound, the IC50 [4] was greater than 10.2 µM, the IC50 [5] was 1880 nM and the IC50 [6] was 7.9 µM. It also gave an IC50 [7] of 9.16 µM, an IC50 [8] greater than 10.2 µM and an IC50 [9] of 5.91 µM. For the same compound, the IC50 [10] was greater than 10.2 µM, the IC50 [11] was greater than 10.2 µM and the IC50 [12] was 9.31 µM. The IC50 [13] was greater than 10.2 µM, the IC50 [14] was greater than 10.2 µM and the IC50 [15] was greater than 10.2 µM. It also gave an IC50 [16] of 6.66 µM, an IC50 [17] greater than 10.2 µM and an IC50 [18] greater than 10.2 µM. For the same compound, the IC50 [19] was greater than 10.2 µM, the IC50 [20] was greater than 10.2 µM and the IC50 [21] was greater than 10.2 µM. It also gave an IC50 [22] greater than 10.2 µM, an IC50 [23] greater than 10.2 µM and an IC50 [24] greater than 10.2 µM. For the same compound, the IC50 [25] was 8.89 µM, the IC50 [26] was 8.09 µM and the IC50 [27] was greater than 10.2 µM. The IC50 [28] was greater than 10.2 µM, the IC50 [29] was greater than 10.2 µM and the IC50 [30] was greater than 10.2 µM. The IC50 [31] was 6.65 µM, the IC50 [32] was 5.29 µM and the IC50 [33] was greater than 10.2 µM. It also gave an IC50 [34] greater than 10.2 µM, an IC50 [35] of 2.56 µM and an IC50 [36] of 2.94 µM. It also gave an IC50 [37] of 2.23 µM, an IC50 [38] of 5.48 µM and an IC50 [39] of 8.52 µM. For the same compound, the IC50 [40] was greater than 10.2 µM, the IC50 [41] was greater than 10.2 µM and the IC50 [42] was greater than 10.2 µM. It also gave an IC50 [43] greater than 10.2 µM, an IC50 [44] of 6.01 µM and an IC50 [45] greater than 10.2 µM. It also gave an IC50 [46] greater than 10.2 µM, an IC50 [47] greater than 10.2 µM and an IC50 [48] greater than 10.2 µM. The IC50 [49] was greater than 10.2 µM and the IC50 [50] was 5.76 µM.
With Cc1ccc(-n2nc(C(C)(C)C)cc2NC(=O)Nc2ccc(OCCN3CCOCC3)c3ccccc23)cc1 [DORAMAPIMOD] the IC50 [1] was greater than 10 µM, the IC50 [2] was greater than 10000 nM and the IC50 [3] was greater than 10 µM. For the same compound, the IC50 [4] was greater than 10 µM, the IC50 [5] was 348 nM and the IC50 [6] was greater than 10 µM. The IC50 [7] was greater than 10 µM, the IC50 [8] was greater than 10 µM and the IC50 [9] was greater than 10 µM. It also gave an IC50 [10] of 7.96 µM, an IC50 [11] greater than 10 µM and an IC50 [12] greater than 10 µM. It also gave an IC50 [13] greater than 10 µM, an IC50 [14] greater than 10 µM and an IC50 [15] greater than 10 µM. For the same compound, the IC50 [16] was greater than 10 µM, the IC50 [17] was greater than 10 µM and the IC50 [18] was greater than 10 µM. It also gave an IC50 [19] greater than 10 µM, an IC50 [20] greater than 10 µM and an IC50 [21] greater than 10 µM. For the same compound, the IC50 [22] was greater than 10 µM, the IC50 [23] was greater than 10 µM and the IC50 [24] was 8.46 µM. It also gave an IC50 [25] greater than 10 µM, an IC50 [26] greater than 10 µM and an IC50 [27] greater than 10 µM. For the same compound, the IC50 [28] was greater than 10 µM, the IC50 [29] was greater than 10 µM and the IC50 [30] was greater than 10 µM. The IC50 [31] was greater than 10 µM, the IC50 [32] was greater than 10 µM and the IC50 [33] was greater than 10 µM. The IC50 [34] was greater than 10 µM, the IC50 [35] was greater than 10 µM and the IC50 [36] was greater than 10 µM. The IC50 [37] was greater than 10 µM, the IC50 [38] was greater than 10 µM and the IC50 [39] was greater than 10 µM. It also gave an IC50 [40] greater than 10 µM, an IC50 [41] greater than 10 µM and an IC50 [42] greater than 10 µM. It also gave an IC50 [43] greater than 10 µM, an IC50 [44] greater than 10 µM and an IC50 [45] greater than 10 µM. It also gave an IC50 [46] greater than 10 µM, an IC50 [47] greater than 10 µM and an IC50 [48] greater than 10 µM. It also gave an IC50 [49] greater than 10 µM and an IC50 [50] greater than 10 µM.
